Series [1] deals with patients with B cell malignancies (multiple myeloma, indolent and mantle cell lymphoma). In words: Phase I 3+3 dose escalation: DLT and MTD. The format is in vivo, human.
Series [2] is described as follows: Alvocidib plasma pharmacokinetics. Format: in vivo, human. As to conditions: mean ± SD.
Series [3] concerns mantle cell lymphoma. Particulars: bortezomib alone; cited from earlier work.
For series [4], the system named is refractory/relapsed MM. Particulars: cited from earlier work.
Series [5] concerns refractory/relapsed indolent NHL (including follicular, marginal zone and SLL). As to conditions: cited from earlier work.
The mark [6] stands for this setting: Dose Level 1 (n=8 doses): alvocidib 20+20 mg/m^2.
The mark [7] stands for this setting: Dose Level 2 (n=6 doses): alvocidib 30+30 mg/m^2.
Setting [8] is: Dose Level 3 (n=3 doses): alvocidib 30+50 mg/m^2.

With `CN1CC[C@H](c2c(O)cc(O)c3c(=O)cc(-c4ccccc4Cl)oc23)[C@H](O)C1` [alvocidib], the “MTD, alvocidib 4 hour infusion” value in series [1] (days 1 and 8, 21 day cycle, after the 30 min bolus, in combination with bortezomib) was determined as 30 mg/m^2. In series [1] (days 1 and 8, 21 day cycle, in combination with bortezomib), the “MTD, alvocidib 30 min bolus infusion” value amounted to 30 mg/m^2. In series [2] (setting [6]), the CL is listed as 13,243 ± 2,540 ml/h/m^2, the K10 came out at 0.803 ± 0.237 h⁻¹ and the V1 was 18,512 ± 8,687 ml/m^2. In addition, in series [2] (setting [7]), the CL is on record as 12,825 ± 3,267 ml/h/m^2, the K10 stood at 1.04 ± 0.438 h⁻¹ and the V1 is on record as 14,888 ± 7,685 ml/m^2. For the same compound, in series [2] (setting [8]), the CL was 18,137 ± 8,097 ml/h/m^2, the K10 is 0.569 ± 0.169 h⁻¹, the V1 is listed as 31,380 ± 7,368 ml/m^2 and the V2 is on record as 48,448 ± 23,397 ml/m^2.

`CC(C)C[C@H](NC(=O)[C@H](Cc1ccccc1)NC(=O)c1cnccn1)B(O)O` [bortezomib]: the “MTD, bortezomib” value in series [1] (IV push days 1, 4, 8, 11, 21 day cycle, in combination with alvocidib) is listed as 1.3 mg/m^2. The “single-agent activity (response rate)” value in series [3] is “approximately 33%”. In series [4], the “responses to single-agent bortezomib” value was “approximately 35%”. In series [5], the “response rates to single agent bortezomib” value is “approximately 13.3%”.

Values taken from paper PMC3096752 (Clinical cancer research : an official journal of the …, 2011).
